Source: the SangsterLogP compilation

| SMILES | logP |
| --- | --- |
| CNC(=O)Nc1c(OCCN2CCCC2)c(OC)c2occc2c1OC | 1.38 |
| C=CCN1CCCC1CNC(=O)c1cc(S(N)(=O)=O)cc(OC)c1OC (stereo not drawn) | 1.47 |
| C=CCN1CCCC1CNC(=O)c1cc(S(=O)(=O)NC)c(N)cc1OC (stereo not drawn) | 1.69 |
| CN1CCCCC1CCN1c2ccccc2Sc2ccc(S(C)(=O)=O)cc21 (stereo not drawn) | 4.45 |
| CCN(CC)CCNC(=O)c1ccc(N)cc1 | 0.82 |
| CN(C)CCCN1c2ccccc2Sc2ccccc21 | 4.64 |
| CC(C)(C)c1cc(C(O)CCC2CCNCC2)c2ccccc2n1 (stereo not drawn) | 3.63 |
| O=C(NCC1CCCCN1)c1cc(OCC(F)(F)F)ccc1OCC(F)(F)F (stereo not drawn) | 3.78 |
| CN1CCN(CCCN2c3ccccc3Sc3ccccc32)CC1 | 4 |
| CC(C)NCC(O)COc1cccc2c1N(C(=O)c1cccnc1)CCC2 (stereo not drawn) | 1.63 |
| CCN(CC)CCCN(c1ccccc1)C1Cc2ccccc2C1 | 4.86 |
| COc1ccc2c(c1)-c1c(ccc(OC)c1O)CC(CCc1ccccc1)N(C)CC2 (stereo not drawn) | 4.85 |
| CC(C)NCCCC1(C(N)=O)c2ccccc2-c2ccccc21 | 3.11 |
